# Assay results: patent US11547682B2, “Use of formin agonists in overcoming brain tumor radio- and chemo-resistance by targeting tumor microtubes” (The University of Toledo, priority 2019, dated 2023)
# Key:
# [1] = system: Pat9 HGG neurospheres; test: 3D matrigel invasion assay of patient-derived HGG neurospheres (Pat9); type: cell-based, human; details: within 24 h; for neurosphere invasion (change in area over T0): 10-50 μM at embedding, refreshed daily, maintained through 48 h, relative to controls
# Experimental: Pat8 and Pat9 HGG neurospheres were embedded in matrigel and allowed to invade. […] Images were captured at embedding (T0) and every 24 h. Invasion area was calculated as increase in area over T0 Pat9 or Pat8 neurosphere areas (FIGS. 3A-3B, respectively). Both Pat9 and Pat8 neurospheres robustly invaded through 48 h, similar to control vehicle-treated neurospheres.
# It was previously shown in U87 spheroids that IMM invasion blockade was reversible. Whether IMM anti-invasion effects were reversible was assessed (FIGS. 4A-4B). Pat9 neurospheres were incubated with vehicle or IMMs for 48 h. Drug washouts were then performed with drug-free media and invasion continued for 48 h. As before, IMM removal released invasion suppression relative to neurospheres held in IMMs for 96 h. The live-dead cell dye Draq7 was then used on invading neurospheres treated with IMMs. […] Unexpectedly, when started at 48 h post-invasion in B27-treated control invading neurospheres, IMM treatment for 48 h thereafter induced robust cell death (FIG. 4C).
# (§1) Neurospheres formed spontaneously in isolated patient sample monolayer cells. Once spheres detach from monolayers, they were collected using wide-orifice pipette tips and moved to poly-HEMA (Sigma) coated U-bottom 96-well plates. Neurospheres were used upon reaching 200-250 μm diameter. Once neurospheres reached 350 μm, they were dissociated and re-plated in poly-HEMA U-bottom plates at 2000 cells/well.
# (§2) 3D invasion assays were as described. Briefly, a thin layer of 5 mg/ml GFR matrigel (Corning) was placed in 8-well chamber glasses (Lab-tek). Neurospheres were added and topped with thin-layer matrigel. Matrigel polymerized for 45 min at 37° C. before addition of 250 μl of media with IMMs. Invasions were imaged at time zero (T0) and every 24 h for experimental durations. Invaded spheroids/spontaneous neurospheres were imaged using an EVOS inverted microscope with an Olympus 4×UplanFL N0.13 PhP objective lens. All measurements were completed with MetaMorph software (Molecular Devices).
# [2] = system: Pat8 HGG neurospheres; test: 3D matrigel invasion assay of patient-derived HGG neurospheres (Pat8); type: cell-based, human; details: 10-50 μM at embedding, refreshed daily, within 24 h, maintained through 48 h, relative to controls
# Experimental: Pat8 and Pat9 HGG neurospheres were embedded in matrigel and allowed to invade. At embedding, neurospheres were treated with 10-50 μM IMM01 or IMM02 and refreshed daily. Images were captured at embedding (T0) and every 24 h. Invasion area was calculated as increase in area over T0 Pat9 or Pat8 neurosphere areas (FIGS. 3A-3B, respectively). Both Pat9 and Pat8 neurospheres robustly invaded through 48 h, similar to control vehicle-treated neurospheres.
# as §1
# as §2, with “All measurements were completed with MetaMorph software (Molecular Devices).” left out
# [3] = system: tumor microtubes (TMs) in Pat9 neurospheres; test: Tumor microtube (TM) formation and length in neurosphere edge cells (IF, Metamorph); type: cell-based, human; details: for tumor TM length upon drug washout: 50 μM
# Experimental: FIGS. 6A-6E: Tumor microtube shortening and amoeboid cell morphologies in IMM-treated HGG patient-derived neurospheres. […] Left-most boxes indicate areas of magnification shown. Scale bar (upper panel)=25 μm; (lower panel 100 μm). FIGS. 6B-6C show tumor TM lengths were measured using Metamorph software from cell nuclei to tumor TM ends. TMs measured from N>196 cells across three replicate experiments. TMs were measured in control (FIG. 6B), or drug washout experiments using 50 μM IMM01 or IMM02 where m=maintained drug and r=washout (FIG. 6C). Data are shown as scatter plots in FIGS. 6B-6C, or histograms (FIGS. 6B′, 6C′). […] FIGS. 6D, 6D′ show cellular morphologies measured in neurosphere edge cells and EI were calculated by dividing cell long by short axes, where EI=1 is a rounded cell, and E>1 is an elongated cell. N>196 cells across three replicate experiments. Data are shown as scatter plots (FIG. 6D, 6E), or histograms (FIG. 6D′, FIG. 6E′).
# FIG. 11: Tumor TM measurements in HGG patient neurospheres. Pat9 neurospheres invaded for 96 h in matrigel in the presence of DMSO, 50 μM IMM01, or 50 μM IMM02. Tumor TMs were measured using Metamorph software by drawing lines (colored lines) along the length of tumor TMs from cell bodies to the end of the tumor TM using brightfield images.
# IF was performed on fixed Pat9 neurospheres treated with or without IMMs for 96 h (FIGS. 5A-5B, respectively). mDia1, mDia2, F-actin, β-tubulin, or de-tyrosinated β-tubulin (glu-tubulin) were visualized (to assess stabilized microtubules). Invaded control neurospheres had diffuse invasive fronts, with extensive symmetrical invasion away from the central neurosphere core. Both mDia1 and mDia2 were diffusely cytoplasmic. […] Some cells were enriched in traditional parallel lamellar actin stress fibers and others with numerous radial F-actin-enriched filopodia-like structures (FIG. 8). […]
# Cell protrusions were confirmed by IF to robustly express punctate Connexin-43 (FIG. 6A). […] Tumor TM length was measured in neurosphere edge cells in IMM-treated Pat9 neurospheres. […]
# [4] = system: mDia; details: cited from earlier work
# [5] = system: U251 monolayers; details: 2D U251 monolayers; cited from earlier work
# [6] = system: p53; details: cited from earlier work
SMILES,neurosphere invasion (change in area over T0) [1],neurosphere invasion (change in area over T0) [2],tumor TM length upon drug washout [3],mDia autoinhibition / F-actin polymerization [4],"cell cycle progression, apoptosis/multi-nucleation [5]",p53 expression [6],neurosphere invasion ([1]; 1 μM),"tumor TM formation ([3]; 1 μM, within 24 h)"
"CC(C)(C)NC(=S)N/N=C/c1ccc(O)cc1O [IMM01, 2-[(2,4-dihydroxyphenyl)methylene]-N-(1,1-dimethylethyl)-hydrazinecarbothioamide]",significantly halted invasion,significantly halted invasion,recovered to controls,relieved mDia autoinhibition to induce F-actin polymerization,"neither changes in cell cycle progression, nor increases in apoptosis/multi-nucleation",–,–,–
"C/C(=N\NC(=S)NC(C)(C)C)c1cc(F)cc(F)c1O [IMM02, N1-(tert-butyl)-2-[1-(3,5-difluoro-2-hydroxyphenyl)ethylidene]hydrazine-1-carbothioamide]",significantly halted invasion,significantly halted invasion,recovered to controls,relieved mDia autoinhibition to induce F-actin polymerization,"neither changes in cell cycle progression, nor increases in apoptosis/multi-nucleation",–,–,–
O=C1NC(=S)N(c2cccc(Br)c2)C(=O)/C1=C/c1ccco1 [SMIFH2],–,–,–,–,–,downregulated p53 expression,–,–
"COC(=O)Nc1nc2ccc(C(=O)c3cccs3)cc2[nH]1 [nocadazole, nocodazole, reference compound]",–,–,–,–,–,–,halted,halted
